Each structure is given as a SMILES string.

The target of assay [1] is MAPK14 (human) (UniProt Q16539). The assay can be described thus: Inhibition of MAPK14 Kinase Activity. The note with it: concentration not given here.
For assay [2], the target named is CDK2 (human) (UniProt P24941). The assay can be described thus: Enzyme Assay. The note with it: concentration not given here.

Sequence of MAPK14 (human) (Q16539 whole entry, looked up): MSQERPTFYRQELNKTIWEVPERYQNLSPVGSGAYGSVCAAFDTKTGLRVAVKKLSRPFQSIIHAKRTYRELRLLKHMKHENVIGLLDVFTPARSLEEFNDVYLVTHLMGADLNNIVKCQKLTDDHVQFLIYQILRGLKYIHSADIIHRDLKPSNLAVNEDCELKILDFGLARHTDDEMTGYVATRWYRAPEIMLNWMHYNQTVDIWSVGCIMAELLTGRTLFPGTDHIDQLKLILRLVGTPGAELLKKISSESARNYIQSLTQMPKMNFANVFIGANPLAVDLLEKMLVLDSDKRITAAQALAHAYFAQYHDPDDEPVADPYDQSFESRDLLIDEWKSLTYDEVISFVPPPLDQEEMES

Broadly, the inhibition is the relative decrease from the control value, in per cent. A high value points to a response far below the control. For the compound `COc1ncc(C2=C(c3cn(CCCO)c4ncccc34)C(=O)NC2=O)c(OC)n1`, the figures for the inhibition in assay [1] and in assay [2] were 2% and 89%, respectively.

With `Cn1ccc(C2=C(c3cn(CCCO)c4ncccc34)C(=O)NC2=O)n1`, the values for the inhibition in assay [1] and in assay [2] were 8% and 44%, respectively.

On to `O=C1NC(=O)C(c2cn(CCCO)c3ncccc23)=C1c1cnccn1`, for which the inhibition in assay [1] amounted to 31%; in assay [2], 30%.

The values above are taken from the Kinase Knowledgebase extract (Sharma et al. 2016).
